Measurements taken from patent US8962608B2, “Cycloalkylnitrile pyrazole carboxamides as janus kinase inhibitors” (Merck Sharp & Dohme Corp., priority 2011, dated 2015).
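Also: biochemical assay with HTRF read-out.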

What follows are molecules tested against JAK1 (recombinant purified GST-tagged catalytic domain) (Homo sapiens (Human), UniProt P23458) (assay: biochemical).
Sequence of JAK1 (recombinant purified GST-tagged catalytic domain) (P23458 875-1153): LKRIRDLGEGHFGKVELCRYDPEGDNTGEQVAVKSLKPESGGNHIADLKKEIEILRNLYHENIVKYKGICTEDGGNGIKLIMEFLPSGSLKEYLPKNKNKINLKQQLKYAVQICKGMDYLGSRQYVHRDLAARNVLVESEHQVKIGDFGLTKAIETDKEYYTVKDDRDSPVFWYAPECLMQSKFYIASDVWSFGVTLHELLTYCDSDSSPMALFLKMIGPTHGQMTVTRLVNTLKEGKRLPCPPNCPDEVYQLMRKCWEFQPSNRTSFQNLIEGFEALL
For `N#C[C@H]1C[C@@H](NCC(F)(F)F)CC[C@@H]1n1cc(C(N)=O)c(Nc2ccnc(F)c2)n1` (single isomer, unassigned) [Example 28-111, 1-{(1S,2S,4S or 1R,2R,4R)-2-cyano-4-[(2,2,2-trifluoroethyl)amino]cyclohexyl}-3-[(2-fluoropyridin-4-yl)amino]-1H-pyrazole-4-carboxamide], the IC50 was 1 nM.
For `N#C[C@H]1C[C@H](N2CC(O)(C(F)(F)F)C2)CC[C@@H]1n1cc(C(N)=O)c(Nc2ccc(C(F)(F)F)cc2)n1` (single isomer, unassigned) [Example 28-201, 1-{(1S,2S,4R or 1R,2R,4S)-2-cyano-4-[3-hydroxy-3-(trifluoromethyl)azetidin-1-yl]cyclohexyl}-3-{[4-(trifluoromethyl)phenyl]amino}-1H-pyrazole-4-carboxamide], the IC50 was 2 nM.
In the case of `N#C[C@H]1CC(NCCO)CCC1n1cc(C(N)=O)c(Nc2ccc(S(=O)(=O)C(F)(F)F)cc2)n1` (mixture of isomers) [Example 27-15, 1-{(1S,2S and 1R,2R)-2-cyano-4-[(2-hydroxyethyl)amino]cyclohexyl}-3-({4-[(trifluoromethyl)sulfonyl]phenyl)amino)-l/f-pyrazolc-4-carboxamide], the IC50 is reported as 0.35 nM.
`CN(C)[C@H]1CC[C@H](n2cc(C(N)=O)c(Nc3ccc(F)cc3)n2)[C@@H](C#N)C1` (single isomer, unassigned) [Example 28-129, 1-[(1S,2S,4S or 1R,2R,4R)-2-cyano-4-(dimethylamino)cyclohexyl]-3-[(4-fluorophenyl)amino]-1H-pyrazole-4-carboxamide] showed an IC50 of 20 nM.
Work on `N#C[C@H]1C[C@H](N2CCC2)CC[C@@H]1n1cc(C(N)=O)c(Nc2ccc(CC(F)(F)F)cc2)n1` (single isomer, unassigned) [Example 28-53, 1-[(1S,2S,4R or 1R,2R,4S)-4-azetidin-1-yl-2-cyanocyclohexyl]-3-{[4-(2,2,2-trifluoroethyl)phenyl]amino}-1H-pyrazole-4-carboxamide] yielded an IC50 of 0.4 nM.
For `N#C[C@H]1CCCC[C@@H]1n1cc(C(N)=O)c(Nc2ccc([C@@H](O)C(F)(F)F)nc2)n1` (single isomer, unassigned) [Example 17-46, 1-[(1S,2S or 1R,2R)-2-cyanocyclohexyl]-3-({6-[(1R or 1S)-2,2,2-trifluoro-1-hydroxyethyl]pyridin-3-yl}amino)-1H-pyrazole-4-carboxamide], the IC50 was 0.35 nM.
Work on `N#C[C@H]1CCCC[C@@H]1n1cc(C(N)=O)c(Nc2ccc(OC(F)F)cc2)n1` (single isomer, unassigned) [Example 17-103, 1-[(1S,2S or 1R,2R)-2-cyanocyclohexyl]-3-{[4-(difluoromethoxy)phenyl]amino}-1H-pyrazole-4-carboxamide] yielded an IC50 of 0.7 nM.
With `COCC(C)N[C@H]1CCC(n2cc(C(N)=O)c(Nc3ccc(Cl)cc3)n2)[C@@H](C#N)C1` (single isomer, unassigned) [Example 28-237, 3-[(4-chlorophenyl)amino]-1-[(1S,2S,4S or 1R,2R,4R)-2-cyano-4-{[(1S)-2-methoxy-1-methylethyl]amino}cyclohexyl]-1H-pyrazole-4-carboxamide] the IC50 was 1 nM.
In the case of `N#C[C@@H]1CCCC[C@@H]1n1cc(C(N)=O)c(Nc2ccc(F)nc2)n1` (racemic) [Example 17-24, 1-[(1S,2R and 1R,2S)-2-cyanocyclohexyl]-3-[(6-fluoropyridin-3-yl)amino]-1H-pyrazole-4-carboxamide], the IC50 is reported as 33 nM.
With `CC(C)NS(=O)(=O)c1ccc(Nc2nn([C@H]3CCCC[C@@H]3C#N)cc2C(N)=O)cc1` (single isomer, unassigned) [Example 17-93, 1-[(1R,2R or 1S,2S)-2-cyanocyclohexyl]-3-({4-[(1-methylethyl)sulfamoyl]phenyl}amino)-1H-pyrazole-4-carboxamide] the IC50 was 0.3 nM.
`N#C[C@H]1CCCCC1n1cc(C(N)=O)c(Nc2ccc3c(c2)CCS3(=O)=O)n1` (mixture of isomers) [Example 20, 1-[(1S,2S and 1R,2R)-2-Cyanocyclohexyl]-3-[(1,1-dioxido-2,3-dihydro-1-benzothiophen-5-yl)amino]-1H-pyrazole-4-carboxamide] showed an IC50 of 0.4 nM.
